Measurements taken from ChEMBL document CHEMBL1158746, “Structures and aldose reductase inhibitory effects of bromophenols from the red alga Symphyocladia latiuscula” (J Nat Prod, 2005).

Biological target: Aldo-keto reductase family 1 member B1 (Homo sapiens, UniProt P15121)
Test: Inhibition of human muscle recombinant aldose reductase by spectrophotometry
Parameters: species or system Muscle tissue

First: Cc1c(Br)c(O)c(O)c(Br)c1Br
Second: O=Cc1c(Br)c(O)c(O)c(Br)c1Br
The IC50 of the first is 4.8-fold higher: 3.19 µM for the first, 0.667 µM for the second. The second is the more potent here.

`Oc1c(O)c(Br)c(Cc2c(Br)c(O)c(O)c(Br)c2Br)c(Br)c1Br` and `Oc1c(Br)cc(Cc2c(Br)c(O)c(O)c(Br)c2Br)c(Br)c1O` are within 1.5-fold of each other in IC50: 0.567 µM for the first, 0.638 µM for the second.

`Oc1cc(Br)c(COCc2c(Br)c(O)c(O)c(Br)c2Br)c(Br)c1O` was tested, and the IC50 was 0.167 µM.
